A short description of data set [1]: In vivo body weight gain was observed in db/db mouse 4 weeks after oral administration (once daily) of 100 mg/kg of compound; (n=6). It is filed as ADME, organism-based. More on the design: dose 100 mg/kg, route oral. Particulars: 672 h.
The nature of data set [2]: In vivo triglyceride level was observed in db/db mouse 4 weeks after oral administration (once daily) of 100 mg/kg of compound; (n=6). Format: ADME, organism-based. More on the design: dose 100 mg/kg, route oral. To be noted: 672 h.
The nature of data set [3]: In vivo blood glucose level was observed in db/db mouse 4 weeks after oral administration (once daily) of 100 mg/kg of compound; (n=6). Format: ADME, organism-based. Particulars: 672 h. More on the design: dose 100 mg/kg, route oral.
Data set [4] is described as follows: In vivo body weight gain was observed in ZDF rats 2 weeks after oral administration (once daily) of 30 mg/kg of compound; (n=6). To be noted: rat, 336 h.
The nature of data set [5]: In vivo triglyceride level was observed in ZDF rats 2 weeks after oral administration (once daily) of 30 mg/kg of compound; (n=6). To be noted: rat, 336 h.
Data set [6] is described as follows: In vivo blood glucose level was observed in ZDF rats 2 weeks after oral administration (once daily) of 30 mg/kg of compound; (n=6). To be noted: rat, 336 h.

In the case of `CCc1ccc(CCOc2ccc(CC3SC(=O)NC3=O)cc2)nc1` (stereo unspecified) [PIOGLITAZONE], the Activity was 15.5 g in data set [1] and 96.6 g in data set [4]. The results for the Triglyceride level in data set [2] and in data set [5] were 73 mg/dL and 109 mg/dL, respectively. The Glucose level stood at 432 mg/dL in data set [3] and 174 mg/dL in data set [6].
